Assay [1] concerns Influenza A virus. Put plainly: Antiviral activity against Influenza A virus A/PR/8/34 strain incubated with MDCK cells assessed as cell protection after 72 hrs by phenotypic cell protection assay. It is filed as functional, organism-based. The following applies: A/Puerto Rico/8/1934(H1N1).
For assay [2], the system named is Influenza A virus. Put plainly: Antiviral activity against influenza A virus A/PR/8/34 strain incubated with MDCK cells assessed as reduction of viral RNA level equal to 1% of control level after 72 hrs by branched DNA assay. Type of assay: functional, organism-based. The conditions noted are these: A/Puerto Rico/8/1934(H1N1).
Assay [3] concerns the target Tyrosine-protein kinase JAK2 (Homo sapiens, UniProt O60674). Put plainly: Inhibition of JAK2 (unknown origin).
Assay [4] deals with Glycogen synthase kinase-3 (Homo sapiens, UniProt P49840+P49841). Put plainly: Inhibition of GSK3 (unknown origin). Type of assay: protein assay.
Assay [5] concerns the target T1, Receptor-type tyrosine-protein kinase FLT3 (Homo sapiens, UniProt P36888).
T1 sequence (P36888 whole entry): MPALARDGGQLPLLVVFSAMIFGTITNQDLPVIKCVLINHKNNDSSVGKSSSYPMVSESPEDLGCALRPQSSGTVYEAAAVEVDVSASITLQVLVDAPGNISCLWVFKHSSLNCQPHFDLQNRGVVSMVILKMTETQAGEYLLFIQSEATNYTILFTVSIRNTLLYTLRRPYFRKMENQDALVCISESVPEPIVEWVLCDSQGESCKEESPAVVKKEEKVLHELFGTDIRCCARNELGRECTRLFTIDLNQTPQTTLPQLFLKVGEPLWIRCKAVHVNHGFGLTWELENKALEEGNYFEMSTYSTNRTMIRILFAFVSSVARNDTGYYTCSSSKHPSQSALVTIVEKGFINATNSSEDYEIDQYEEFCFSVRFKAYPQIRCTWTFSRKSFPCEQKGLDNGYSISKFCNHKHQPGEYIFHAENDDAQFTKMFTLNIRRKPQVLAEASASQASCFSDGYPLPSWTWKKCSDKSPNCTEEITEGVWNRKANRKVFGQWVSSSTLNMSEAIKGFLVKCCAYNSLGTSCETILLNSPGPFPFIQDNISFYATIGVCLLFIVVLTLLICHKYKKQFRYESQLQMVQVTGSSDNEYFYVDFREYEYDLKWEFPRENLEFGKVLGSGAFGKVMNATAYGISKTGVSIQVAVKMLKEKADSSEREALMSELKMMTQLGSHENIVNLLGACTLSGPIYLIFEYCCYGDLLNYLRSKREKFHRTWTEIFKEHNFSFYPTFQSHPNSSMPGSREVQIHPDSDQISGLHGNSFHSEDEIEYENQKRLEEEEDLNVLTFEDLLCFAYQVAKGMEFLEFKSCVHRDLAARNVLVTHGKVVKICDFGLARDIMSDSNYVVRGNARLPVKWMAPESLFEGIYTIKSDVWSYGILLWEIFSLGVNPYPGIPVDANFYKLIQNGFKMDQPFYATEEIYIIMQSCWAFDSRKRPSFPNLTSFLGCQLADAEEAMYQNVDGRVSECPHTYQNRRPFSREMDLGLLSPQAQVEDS
Put plainly: Inhibition of FLT3 (unknown origin).

Assay [6] concerns the target Mitogen-activated protein kinase 10 (Homo sapiens, UniProt P53779). The assay is described as follows: Inhibition of JNK3 (unknown origin).
For assay [7], the target named is Rho-associated protein kinase (Homo sapiens, UniProt O75116+Q13464). Put plainly: Inhibition of ROCK (unknown origin). Type of assay: protein-complex assay.
The target in assay [8] is Vascular endothelial growth factor receptor 2 (Homo sapiens, UniProt P35968). The assay is described as follows: Inhibition of KDR (unknown origin).
For assay [9], the target named is Proto-oncogene tyrosine-protein kinase Src (Homo sapiens, UniProt P12931). The assay is described as follows: Inhibition of SRC (unknown origin).
Assay [10] deals with cAMP-dependent protein kinase catalytic subunit alpha (Homo sapiens, UniProt P17612). The assay is described as follows: Inhibition of PKAa (unknown origin).
Assay [11] has as its target T2, Interleukin-1 receptor-associated kinase 4 (Homo sapiens, UniProt Q9NWZ3).
T2 sequence (Q9NWZ3 whole entry): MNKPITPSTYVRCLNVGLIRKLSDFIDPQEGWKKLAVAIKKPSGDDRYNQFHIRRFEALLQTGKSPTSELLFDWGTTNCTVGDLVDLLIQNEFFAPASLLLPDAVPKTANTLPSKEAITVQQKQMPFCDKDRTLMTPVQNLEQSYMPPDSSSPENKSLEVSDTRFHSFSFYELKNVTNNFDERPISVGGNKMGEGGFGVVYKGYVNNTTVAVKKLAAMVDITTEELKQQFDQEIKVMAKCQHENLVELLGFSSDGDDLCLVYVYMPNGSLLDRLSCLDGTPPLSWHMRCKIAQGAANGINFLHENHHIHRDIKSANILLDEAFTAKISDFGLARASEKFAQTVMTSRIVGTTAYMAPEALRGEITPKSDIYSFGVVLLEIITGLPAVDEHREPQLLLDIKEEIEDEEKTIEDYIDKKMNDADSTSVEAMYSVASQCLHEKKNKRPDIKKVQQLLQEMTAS
Put plainly: Inhibition of IRAK4 (unknown origin).

Assay [12] has as its target Tyrosine-protein kinase SYK (Homo sapiens, UniProt P43405). Put plainly: Inhibition of SYK (unknown origin).
Assay [13] addresses Cyclin-dependent kinase 2 (Homo sapiens, UniProt P24941). The assay is described as follows: Inhibition of CDK2 (unknown origin).
For assay [14], the target named is Serine/threonine-protein kinase PLK1 (Homo sapiens, UniProt P53350). The assay is described as follows: Inhibition of PLK (unknown origin).
In assay [15] the target is Hepatocyte growth factor receptor (Homo sapiens, UniProt P08581). Put plainly: Inhibition of MET (unknown origin).
Assay [16] deals with Phosphatidylinositol 4,5-bisphosphate 3-kinase catalytic subunit alpha isoform (Homo sapiens, UniProt P42336). Put plainly: Inhibition of PI3Kalpha (unknown origin).
The target of assay [17] is T3, Phosphatidylinositol 4,5-bisphosphate 3-kinase catalytic subunit delta isoform (Homo sapiens, UniProt O00329).
T3 sequence (O00329 whole entry): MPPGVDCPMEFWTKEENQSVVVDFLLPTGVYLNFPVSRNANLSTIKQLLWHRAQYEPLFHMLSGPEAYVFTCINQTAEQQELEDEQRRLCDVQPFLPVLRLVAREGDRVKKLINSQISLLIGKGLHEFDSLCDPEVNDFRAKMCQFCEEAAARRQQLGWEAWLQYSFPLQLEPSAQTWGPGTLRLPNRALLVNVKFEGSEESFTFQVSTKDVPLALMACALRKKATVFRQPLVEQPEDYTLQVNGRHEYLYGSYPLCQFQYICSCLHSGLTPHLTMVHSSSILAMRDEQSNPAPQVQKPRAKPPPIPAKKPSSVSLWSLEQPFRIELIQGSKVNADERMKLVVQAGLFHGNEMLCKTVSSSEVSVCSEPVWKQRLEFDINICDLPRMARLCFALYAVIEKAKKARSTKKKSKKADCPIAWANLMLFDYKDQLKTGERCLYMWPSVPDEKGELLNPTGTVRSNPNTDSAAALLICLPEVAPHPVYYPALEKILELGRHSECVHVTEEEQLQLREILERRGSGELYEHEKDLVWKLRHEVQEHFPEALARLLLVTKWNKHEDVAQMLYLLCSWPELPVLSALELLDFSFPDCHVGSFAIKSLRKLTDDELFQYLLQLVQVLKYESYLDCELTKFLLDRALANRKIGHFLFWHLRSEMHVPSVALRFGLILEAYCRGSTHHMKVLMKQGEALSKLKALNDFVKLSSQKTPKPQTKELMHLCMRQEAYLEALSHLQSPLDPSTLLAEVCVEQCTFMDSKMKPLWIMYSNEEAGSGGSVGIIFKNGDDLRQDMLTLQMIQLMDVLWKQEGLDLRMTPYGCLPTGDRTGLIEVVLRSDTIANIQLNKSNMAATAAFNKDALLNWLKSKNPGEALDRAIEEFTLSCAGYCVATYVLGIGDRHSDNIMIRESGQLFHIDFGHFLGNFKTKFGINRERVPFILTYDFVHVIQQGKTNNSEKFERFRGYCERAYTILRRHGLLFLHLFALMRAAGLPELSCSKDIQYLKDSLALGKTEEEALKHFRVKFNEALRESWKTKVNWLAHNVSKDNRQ
Put plainly: Inhibition of PI3Kdelta (unknown origin).

The target in assay [18] is Phosphatidylinositol 4,5-bisphosphate 3-kinase catalytic subunit gamma isoform (Homo sapiens, UniProt P48736). Put plainly: Inhibition of PI3Kgamma (unknown origin).
The target in assay [19] is Phosphatidylinositol 4,5-bisphosphate 3-kinase catalytic subunit beta isoform (Homo sapiens, UniProt P42338). Put plainly: Inhibition of PI3Kbeta (unknown origin).

As usually defined, the IC50 is the concentration that inhibits the measured activity by half. As a reminder, the EC50 is the concentration giving half of the maximal effect. The EC99 is the concentration at which the effect reaches the 99% level. Broadly, the Ki is the dissociation constant of the complex between target and ligand, obtained from inhibition or displacement. Read a low Ki as tighter binding.

Sequence of Mitogen-activated protein kinase 10 (P53779 whole entry): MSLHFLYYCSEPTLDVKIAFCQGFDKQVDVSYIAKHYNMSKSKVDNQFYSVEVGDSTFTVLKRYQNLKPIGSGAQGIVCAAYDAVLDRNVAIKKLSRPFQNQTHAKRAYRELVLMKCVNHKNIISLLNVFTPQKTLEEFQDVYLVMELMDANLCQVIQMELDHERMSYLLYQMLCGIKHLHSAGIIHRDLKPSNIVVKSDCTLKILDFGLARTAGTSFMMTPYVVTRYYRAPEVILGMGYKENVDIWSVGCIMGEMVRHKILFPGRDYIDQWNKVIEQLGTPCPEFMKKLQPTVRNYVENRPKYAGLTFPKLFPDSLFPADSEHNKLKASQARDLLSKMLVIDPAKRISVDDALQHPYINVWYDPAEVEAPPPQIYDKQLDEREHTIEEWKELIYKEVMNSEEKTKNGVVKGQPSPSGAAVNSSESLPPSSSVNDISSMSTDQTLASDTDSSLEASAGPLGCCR
Sequence of Hepatocyte growth factor receptor (P08581 whole entry, canonical isoform): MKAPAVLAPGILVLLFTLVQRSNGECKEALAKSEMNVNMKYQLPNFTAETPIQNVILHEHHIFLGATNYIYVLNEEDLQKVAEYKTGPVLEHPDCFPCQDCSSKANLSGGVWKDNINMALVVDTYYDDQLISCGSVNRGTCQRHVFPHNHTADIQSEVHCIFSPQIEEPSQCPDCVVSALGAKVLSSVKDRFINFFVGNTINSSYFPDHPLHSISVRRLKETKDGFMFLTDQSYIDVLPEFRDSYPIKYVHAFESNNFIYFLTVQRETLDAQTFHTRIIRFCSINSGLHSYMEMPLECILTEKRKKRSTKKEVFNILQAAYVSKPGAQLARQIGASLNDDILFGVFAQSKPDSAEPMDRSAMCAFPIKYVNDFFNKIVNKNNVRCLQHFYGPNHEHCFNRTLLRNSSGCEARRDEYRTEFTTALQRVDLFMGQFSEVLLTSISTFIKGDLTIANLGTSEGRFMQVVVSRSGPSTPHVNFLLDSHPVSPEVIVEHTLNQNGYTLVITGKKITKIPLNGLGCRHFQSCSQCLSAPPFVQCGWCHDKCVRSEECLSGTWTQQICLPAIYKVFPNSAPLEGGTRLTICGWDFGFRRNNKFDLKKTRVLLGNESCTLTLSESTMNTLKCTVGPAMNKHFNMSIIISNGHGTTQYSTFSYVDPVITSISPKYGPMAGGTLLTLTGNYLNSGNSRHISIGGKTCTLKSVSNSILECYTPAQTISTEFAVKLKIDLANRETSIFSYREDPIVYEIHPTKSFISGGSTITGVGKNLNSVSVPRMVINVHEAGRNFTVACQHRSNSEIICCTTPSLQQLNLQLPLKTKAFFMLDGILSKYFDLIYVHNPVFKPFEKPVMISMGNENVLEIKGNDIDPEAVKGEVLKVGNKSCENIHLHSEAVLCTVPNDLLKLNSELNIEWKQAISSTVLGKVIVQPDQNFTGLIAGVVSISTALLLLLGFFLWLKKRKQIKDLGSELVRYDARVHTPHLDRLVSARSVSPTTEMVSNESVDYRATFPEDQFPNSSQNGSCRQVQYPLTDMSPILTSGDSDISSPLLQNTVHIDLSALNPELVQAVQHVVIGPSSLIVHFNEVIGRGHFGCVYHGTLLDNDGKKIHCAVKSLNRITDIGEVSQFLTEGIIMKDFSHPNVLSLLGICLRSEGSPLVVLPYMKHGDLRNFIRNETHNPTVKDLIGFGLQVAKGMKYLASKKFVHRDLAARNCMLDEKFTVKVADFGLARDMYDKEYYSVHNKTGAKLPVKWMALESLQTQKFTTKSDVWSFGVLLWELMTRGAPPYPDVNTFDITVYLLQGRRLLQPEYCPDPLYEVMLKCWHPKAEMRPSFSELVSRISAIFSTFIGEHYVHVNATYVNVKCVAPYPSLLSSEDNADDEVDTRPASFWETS
Sequence of Proto-oncogene tyrosine-protein kinase Src (P12931 2-536 limits assumed): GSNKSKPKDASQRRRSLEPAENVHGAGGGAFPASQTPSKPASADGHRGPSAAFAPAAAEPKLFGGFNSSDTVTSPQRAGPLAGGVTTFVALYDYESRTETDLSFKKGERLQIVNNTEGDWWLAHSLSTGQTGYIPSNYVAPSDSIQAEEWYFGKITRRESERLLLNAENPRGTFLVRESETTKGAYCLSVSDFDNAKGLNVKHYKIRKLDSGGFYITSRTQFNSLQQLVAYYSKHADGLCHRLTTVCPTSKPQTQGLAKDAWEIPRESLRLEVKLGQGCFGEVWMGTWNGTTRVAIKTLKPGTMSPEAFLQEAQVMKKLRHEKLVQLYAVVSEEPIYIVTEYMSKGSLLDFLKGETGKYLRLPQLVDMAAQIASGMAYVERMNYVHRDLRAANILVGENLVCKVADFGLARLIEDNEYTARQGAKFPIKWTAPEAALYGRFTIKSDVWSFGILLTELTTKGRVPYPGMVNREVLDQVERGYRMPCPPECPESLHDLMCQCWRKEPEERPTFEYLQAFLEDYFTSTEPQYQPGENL
Sequence of Tyrosine-protein kinase JAK2 (O60674 whole entry): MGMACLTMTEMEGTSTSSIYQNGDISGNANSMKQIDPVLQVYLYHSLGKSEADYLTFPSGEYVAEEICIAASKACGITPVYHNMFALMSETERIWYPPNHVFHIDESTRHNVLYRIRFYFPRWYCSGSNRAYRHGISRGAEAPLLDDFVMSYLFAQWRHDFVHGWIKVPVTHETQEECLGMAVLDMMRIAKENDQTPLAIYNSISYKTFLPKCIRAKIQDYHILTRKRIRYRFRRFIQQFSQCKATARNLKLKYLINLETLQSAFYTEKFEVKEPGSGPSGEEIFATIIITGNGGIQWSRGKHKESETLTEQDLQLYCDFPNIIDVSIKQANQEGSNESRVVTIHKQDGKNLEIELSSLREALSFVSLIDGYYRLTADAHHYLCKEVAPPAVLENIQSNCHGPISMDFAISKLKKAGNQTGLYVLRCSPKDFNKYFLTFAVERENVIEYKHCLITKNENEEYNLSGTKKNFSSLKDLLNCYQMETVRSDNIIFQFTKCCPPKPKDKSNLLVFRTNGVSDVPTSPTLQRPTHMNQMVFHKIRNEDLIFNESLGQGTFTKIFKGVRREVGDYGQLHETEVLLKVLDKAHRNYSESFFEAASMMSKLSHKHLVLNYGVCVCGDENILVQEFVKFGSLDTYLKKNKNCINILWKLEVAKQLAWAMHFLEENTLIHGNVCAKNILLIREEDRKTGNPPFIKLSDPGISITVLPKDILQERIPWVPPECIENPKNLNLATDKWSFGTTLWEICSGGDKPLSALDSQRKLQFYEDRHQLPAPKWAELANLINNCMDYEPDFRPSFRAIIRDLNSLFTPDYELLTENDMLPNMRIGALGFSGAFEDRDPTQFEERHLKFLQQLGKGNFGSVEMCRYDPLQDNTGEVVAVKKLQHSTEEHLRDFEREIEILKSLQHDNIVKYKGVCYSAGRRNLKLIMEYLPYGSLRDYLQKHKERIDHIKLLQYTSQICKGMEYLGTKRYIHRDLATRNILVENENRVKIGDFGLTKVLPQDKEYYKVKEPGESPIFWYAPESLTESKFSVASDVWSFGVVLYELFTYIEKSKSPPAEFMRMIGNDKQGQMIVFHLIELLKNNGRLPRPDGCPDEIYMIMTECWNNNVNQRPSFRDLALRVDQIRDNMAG
Sequence of Phosphatidylinositol 4,5-bisphosphate 3-kinase catalytic subunit alpha isoform (P42336 whole entry, canonical isoform): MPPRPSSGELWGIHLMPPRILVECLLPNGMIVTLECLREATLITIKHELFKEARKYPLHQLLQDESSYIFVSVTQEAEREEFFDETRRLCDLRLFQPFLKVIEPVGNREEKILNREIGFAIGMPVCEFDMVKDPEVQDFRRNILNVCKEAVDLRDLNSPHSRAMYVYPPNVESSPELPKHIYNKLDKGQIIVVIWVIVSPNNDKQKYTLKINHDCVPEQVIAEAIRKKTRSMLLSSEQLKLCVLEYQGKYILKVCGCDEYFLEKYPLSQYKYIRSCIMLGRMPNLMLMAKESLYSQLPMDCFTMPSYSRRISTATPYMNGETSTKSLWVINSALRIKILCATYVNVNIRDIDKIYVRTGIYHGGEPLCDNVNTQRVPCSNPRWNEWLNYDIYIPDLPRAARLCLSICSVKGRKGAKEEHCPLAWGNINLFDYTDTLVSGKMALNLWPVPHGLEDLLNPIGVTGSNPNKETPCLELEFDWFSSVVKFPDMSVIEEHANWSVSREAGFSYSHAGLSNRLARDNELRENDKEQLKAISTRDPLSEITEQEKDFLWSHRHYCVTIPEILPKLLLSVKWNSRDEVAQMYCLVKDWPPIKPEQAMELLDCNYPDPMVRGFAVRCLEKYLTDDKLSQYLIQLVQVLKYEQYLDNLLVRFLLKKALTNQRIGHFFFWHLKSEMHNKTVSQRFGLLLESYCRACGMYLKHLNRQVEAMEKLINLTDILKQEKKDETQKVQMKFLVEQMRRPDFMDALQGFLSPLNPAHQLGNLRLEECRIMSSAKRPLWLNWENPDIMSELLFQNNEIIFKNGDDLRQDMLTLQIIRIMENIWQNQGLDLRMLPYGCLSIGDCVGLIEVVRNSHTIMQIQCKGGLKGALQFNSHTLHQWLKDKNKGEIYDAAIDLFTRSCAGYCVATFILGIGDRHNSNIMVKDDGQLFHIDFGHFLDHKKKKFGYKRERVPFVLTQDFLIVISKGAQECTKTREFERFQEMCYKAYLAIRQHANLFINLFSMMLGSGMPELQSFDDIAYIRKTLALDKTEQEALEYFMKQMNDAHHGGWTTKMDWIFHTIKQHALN

Turning to `CC(O)[C@H]1C2CCC(CC2)[C@@H]1Nc1nc(-c2c[nH]c3ncc(F)cc23)ncc1F` (mixture of isomers), in the assay on Influenza A virus [1], the IC50 was found to be 0.31 µM. In the assay on Influenza A virus [2], the EC50 was found to be 0.49 µM. The EC99 in the assay on Influenza A virus [2] was > 3.1 µM. For the same compound, the Ki is 0.24 µM in assay [3]; 0.066 µM in assay [4]; 0.15 µM in assay [5]; > 4 µM in [6]; 0.31 µM in assay [7]; 2 µM in [8]. The Ki is 0.97 µM in [9]; > 4 µM in assay [10]; 3.3 µM in assay [11]; > 4 µM in assay [12]; 1.2 µM in assay [13]; 1 µM in assay [14]. The Ki in assay [15] is > 4 µM; in [16], > 4 µM; in [17] it was > 4 µM; in assay [18], 0.78 µM; in assay [19], > 4 µM.

`CC(=O)NS(=O)(=O)[C@H]1C2CCC(CC2)[C@@H]1Nc1nc(-c2c[nH]c3ncc(F)cc23)ncc1F` (mixture of isomers): in the assay with Influenza A virus [1], the IC50 was 0.019 µM. Besides, the EC50 in the assay with Influenza A virus [2] is 0.009 µM. Also, the concentration for an effect of 99% (EC99) with Influenza A virus [2] was 0.16 µM. Moreover, the Ki was > 4 µM in assay [3]; 0.31 µM in assay [4]; 2.8 µM in assay [5]; > 4 µM in [6]; > 4 µM in [7]; > 4 µM in [8]. Further, the Ki in assay [9], in [10], in assay [11], in [12], in assay [13] and in assay [14] was > 4 µM in each case. Besides, the Ki was > 4 µM in [15]; > 4 µM in assay [16]; > 4 µM in assay [17]; 1.5 µM in assay [18]; > 4 µM in assay [19].

Regarding `O=P(O)(O)CC[C@H]1C2CCC(CC2)[C@@H]1Nc1nc(-c2c[nH]c3ncc(F)cc23)ncc1F` (mixture of isomers), in the assay on Influenza A virus [1], the IC50 is 0.2 µM. Also, the concentration giving a half-maximal response (EC50) with Influenza A virus [2] was determined as 0.33 µM. For the same compound, in the assay on Influenza A virus [2], the EC99 came out at 2.1 µM. Moreover, the Ki in assay [3] is 0.62 µM; in assay [4], 0.12 µM; in [5] it was > 4 µM; in assay [6], > 4 µM; in assay [7], 0.25 µM; in assay [8], > 4 µM. Also, the inhibition constant Ki in assay [9] is > 4 µM; in assay [10] it was > 4 µM; in assay [11] it was > 4 µM; in assay [12], > 4 µM; in [13], > 4 µM; in assay [14], 0.32 µM. Also, the inhibition constant (Ki) in assay [15] was > 4 µM; in assay [16], 0.85 µM; in assay [17] it was 3.1 µM; in assay [18], 0.4 µM; in assay [19] it was > 4 µM.

With `Oc1cc([C@H]2C3CCC(CC3)[C@@H]2Nc2nc(-c3c[nH]c4ncc(F)cc34)ncc2F)no1` (mixture of isomers), in the assay with Influenza A virus [1], the IC50 was 0.072 µM. Also, in the assay with Influenza A virus [2], the concentration giving a half-maximal response (EC50) was 0.011 µM. In addition, the concentration for an effect of 99% (EC99) in the assay on Influenza A virus [2] turned out to be 0.062 µM. Moreover, the Ki is 0.2 µM in [3]; 0.06 µM in assay [4]; 0.8 µM in assay [5]; > 4 µM in [6]; > 4 µM in assay [7]; > 4 µM in [8]. Further, the inhibition constant (Ki) was > 4 µM in assay [9]; 0.59 µM in [10]; > 4 µM in [11]; > 4 µM in [12]; > 4 µM in assay [13]; 1 µM in assay [14]. For the same compound, the Ki in assay [15] was > 4 µM; in assay [16], 0.88 µM; in [17] it was > 4 µM; in assay [18], 0.75 µM; in assay [19], > 4 µM.

Take `Fc1cnc2[nH]cc(-c3ncc(F)c(N[C@H]4C5CCC(CC5)[C@@H]4c4nnn[nH]4)n3)c2c1` (mixture of isomers): the concentration for half-maximal inhibition (IC50) in the assay with Influenza A virus [1] was determined as 0.025 µM. Further, the EC50 in the assay on Influenza A virus [2] is 0.038 µM. Besides, in the assay on Influenza A virus [2], the concentration for an effect of 99% (EC99) turned out to be 0.18 µM. The Ki in [3], in assay [4], in [5], in assay [6], in assay [7] and in [8] was > 4 µM each time. Also, the Ki in assay [9], in assay [10], in assay [11], in [12], in [13] and in assay [14] was > 4 µM each time. The Ki in assay [15] was > 4 µM; in assay [16] it was 1.8 µM; in assay [17], > 4 µM; in assay [18], 2.9 µM; in assay [19], > 4 µM.

For the origin of these results see ChEMBL document CHEMBL3399966, “Isosteric replacements of the carboxylic acid of drug candidate VX-787: Effect of charge on antiviral potency and kinase activity of azaindole-based influenza PB2 inhibitors” (Bioorg Med Chem Lett, 2015).
